Results published in patent publication US10537609B2, “MUC1 decoy peptides for treatment and prevention of bacterial infections” (priority 2014, dated 2020).

Tests used:
[1] = tested on: P. aeruginosa (Pa) adhesion to A549 cells; test: Bacterial adhesion assay: Pa preincubated with test material, then adhesion to A549 cell monolayers; conditions: for blocking of Pa adhesion to ECs by free monosaccharides: Pa preincubated 30 min with 5, 10 or 25 mM, separately or in combination (FIG. 10); for reduction of Pa adhesion: Pa preincubated 30 min with shed MUC1-ED preparation, adhesion to fresh A549 monolayers, compared with respective controls (FIG. 11)
MUC1-NEU1 association = conditions: A549 cells preincubated 30 min with 5.0 μM, then 10 ng/ml Pa flagellin 30 min
[2] = tested on: Pseudomonas aeruginosa lung infection; test: Mouse survival following Pseudomonas aeruginosa lung infection; type: in vivo, BALB/c mice; conditions: Pa intranasally at LD90 (2.0×10^7 CFU/mouse); MUC1-ED 2.5 μg/mouse, cefepime 1.0 μg/mouse; n=7/group
Method: FIG. 14. Effect of E. coli MUC1-ED With or Without Cefepime on Mouse Survival Following Pseudomonas aeruginosa Lung Infection. Pseudomonas aeruginosa was administered intranasally to BALB/c mice at an LD90 (2.0×10^7 CFU/mouse) with PBS control or E. coli-expressed MUC1-ED (2.5 μg/mouse). Simultaneously, PBS or cefepime (1.0 μg/mouse) was administered intraperitoneally, and mouse survival was measured daily (n=7/group).
P. aeruginosa was administered intranasally to groups of seven BALB/c mice at an LD90 (2.0×10^7 CFU/mouse). The control group (group #1) received PBS intraperitoneally as therapy; group #2 received MUC1-ED (2.5 μg/mouse) intraperitoneally; group #3 received cefepime (1.0 μg/mouse) intraperitoneally; group #4 received MUC1-ED (2.5 μg/mouse) and cefepime (1.0 μg/mouse) simultaneously, intraperitoneally. The MUC1-ED was E. coli-expressed deglycosylated peptide having the amino acid sequence set forth in SEQ ID NO:2.

Pa lung infection = test: Mouse model of Pa lung infection, Pa CFU in BALF and lungs; conditions: Pa preincubated with MUC1-ED; 10^5 CFU/mouse i.t.; 48 h and 72 h post-challenge; vs PBS control

| Compound | blocking of Pa adhesion to ECs by free monosaccharides [1] | reduction of Pa adhesion [1] | other results |
| --- | --- | --- | --- |
| CC(=O)N[C@H]1C(O)O[C@H](CO)[C@H](O)[C@@H]1O (some centres unmarked) [N-acetylgalactosamine, reference compound] | None of these monosaccharides, either separately or in combination, blocked Pa adhesion to ECs |  |  |
| N#CC(=C(/N)Sc1ccccc1N)/C(C#N)=C(\N)Sc1ccccc1N [U0126] |  |  | effect on MUC1-NEU1 co-immunoprecipitation (MUC1-NEU1 association): failed to alter MUC1-NEU1 co-immunoprecipitation |
| MUC1-ED: shed MUC1 ectodomain in airway EC culture supernates |  |  | MUC1-ED concentrations capable of inhibiting Pa adhesion in vitro ([1]; shed MUC1-ED in EC culture supernates (FIGS. 9A, 9B)): ≤ 0.63 μg/m1 |
| CC(=O)N[C@H]1C(O)O[C@H](CO)[C@@H](O)[C@@H]1O (some centres unmarked) [N-acetylglucosamine, reference compound] | None of these monosaccharides, either separately or in combination, blocked Pa adhesion to ECs |  |  |
| desialylated MUC1-ED from Ad-NEU1-infected ECs: MUC1-ED prepared from culture supernates of airway ECs infected with Ad-NEU1 |  | ~65% |  |
| MUC1-ED from tunicamycin-treated ECs: MUC1-ED from supernates of airway ECs cultured with the N-glycosylation inhibitor tunicamycin |  | did not reduce Pa adhesion |  |
| CO/N=C(\C(=O)N[C@@H]1C(=O)N2C(C(=O)[O-])=C(C[N+]3(C)CCCC3)CS[C@H]12)c1csc(N)n1 [cefepime, reference compound] |  |  | survival over seven days [2]: ~62.5% |
| O=C[C@H](O)[C@@H](O)[C@@H](O)[C@H](O)CO [galactose, reference compound] | None of these monosaccharides, either separately or in combination, blocked Pa adhesion to ECs |  |  |
| MUC1-ED from GalNAc-O-bn-treated ECs: MUC1-ED from supernates of airway ECs cultured with the O-glycosylation inhibitor benzyl-N-acetyl-α-galactosaminide |  | 88% |  |
| MUC1-ED from E. coli transformed with pMUC1: deglycosylated form of MUC1-ED prepared by transformation of Escherichia coli with a MUC1 expression plasmid (pMUC1); SEQ ID NO:2 per b204 |  | 93% | number of Pa recovered from BALF (CFU) (Pa lung infection): reduced the number of Pa recovered; number of Pa recovered from lungs (CFU) (Pa lung infection): reduced the number of Pa recovered; maximum inhibition of Pa adhesion ([1]; comparison in the discussion, single repeat vs MUC1-ED containing 15 repeats): > 90%; survival over seven days [2]: ~45% |
